Assays:
Fibroblast cells [1] = assay: NASBA ratio of mitochondrial DNA to chromosomal DNA in cultured fibroblast cells; assay type: cell-based; details: culture period of four weeks, antiviral drugs at 3 μM and 30 μM
Protocol: (§1) In Table 1, the primers and probes used in the examples are summarized. Standard NASBA nucleic acid amplification reactions were performed in a 20 μl reaction volume and contained: 40 mM Tris-pH 8.5, 70 mM KCl, 12 mM MgCl2, 5 mM dithiothreitol, 1 mM dNTPs (each), 2 mM rNTPs (each), 0.2 μM primer (each), 0.05 μM molecular beacon, 375 mM sorbitol, 0.105 μg/μl bovine serum albumin, 6.4 units AMV RT, 32 units T7 RNA polymerase, 0.08 units RNAse H and input nucleic acid. The complete mixture, except the enzymes, sorbitol and/or bovine serum albumin was, prior to adding the enzyme mixture, heated to 65° C. for two minutes in order to denature any secondary structure in the RNA and to allow the primers to anneal. After cooling the mixture to 41° C., the enzymes were added. The amplification took place at 41° C. for 90 minutes in a fluorimeter (CytoFluor 2000) and the fluorescent signal was measured every minute (using the filter set 530/25 nm and 485/30 nm). […]
(§2) To achieve quantification, a dilution series of target sequences for a particular primer set was amplified and the time points at which the reactions became positive (the time to positivity, TTP) were plotted against the input amounts of nucleic acid. This way a calibration curve was created that could be used to read TTP values of reactions with unknown amounts of input and deduce the input amount. […]

Fibroblast cells [2] = assay: NASBA ratio of mitochondrial RNA to mitochondrial DNA in cultured fibroblast cells; assay type: cell-based; details: culture period of four weeks, antiviral drugs at 3 μM and 30 μM
Protocol: as §1, §2

[3] = tested on: peripheral blood mononuclear cells (PBMCs); assay: NASBA ratio of mitochondrial DNA to chromosomal DNA in cultured PBMCs; assay type: cell-based; details: culture period of five days, 6 μM and 60 μM
Protocol: as §1, §2

[4] = cited from earlier work

In the case of Cc1cn([C@H]2C[C@H](N=[N+]=[N-])[C@@H](CO)O2)c(=O)[nH]c1=O [AZT], the “change in mitochondrial DNA to chromosomal DNA ratio” value (Fibroblast cells [1]) is reported as “no measurable change”, the “change in mitochondrial RNA to mitochondrial DNA ratio” value (Fibroblast cells [2]) is reported as “no measurable change” and the “change in ratio of mitochondrial DNA to chromosomal DNA” value [3] is reported as “no measurable change”. The “Rate (%) of mitochondrial toxicity, affected organ Heart” value ([4]; Dilated cardio-myopathy) was “Rare” and the “Rate (%) of mitochondrial toxicity, affected organ Muscle” value ([4]; Fatigue, myalgia, proximal weakness, wasting, Creatine kinase ↑) was 17%.
